Some targets named below: Carbonic anhydrase 6 (Homo sapiens, UniProt P23280); Carbonic anhydrase 1 (Homo sapiens, UniProt P00915); Carbonic anhydrase 2 (Homo sapiens, UniProt P00918).
What all share (assay): CA Activity Assay
What all share (details): pH 7.4; 25 °C

One may read the Ki as the dissociation constant of the complex between target and ligand, obtained from inhibition or displacement.

Carbonic anhydrase 1, sequence (P00915 whole entry): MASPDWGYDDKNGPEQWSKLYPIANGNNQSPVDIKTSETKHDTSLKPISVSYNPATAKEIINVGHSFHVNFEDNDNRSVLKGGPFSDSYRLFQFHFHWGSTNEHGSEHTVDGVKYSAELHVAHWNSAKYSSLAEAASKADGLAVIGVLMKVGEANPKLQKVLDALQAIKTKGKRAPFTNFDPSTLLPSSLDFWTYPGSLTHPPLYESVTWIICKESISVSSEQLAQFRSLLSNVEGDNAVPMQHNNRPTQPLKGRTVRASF
Carbonic anhydrase 6, sequence (P23280 whole entry): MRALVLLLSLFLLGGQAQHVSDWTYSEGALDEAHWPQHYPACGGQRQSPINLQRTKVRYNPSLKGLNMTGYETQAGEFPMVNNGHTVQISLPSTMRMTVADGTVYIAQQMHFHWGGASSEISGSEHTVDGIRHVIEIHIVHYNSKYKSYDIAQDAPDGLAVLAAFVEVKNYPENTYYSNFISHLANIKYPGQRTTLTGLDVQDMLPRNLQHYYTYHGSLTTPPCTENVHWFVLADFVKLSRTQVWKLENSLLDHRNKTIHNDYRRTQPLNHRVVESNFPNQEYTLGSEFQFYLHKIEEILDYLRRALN

On to `NC1CCc2cc(O)c(O)cc2C1` (stereo unspecified), for which the Ki on Carbonic anhydrase 6 stood at 1.15 µM; at Carbonic anhydrase 1 it was 41.1 µM; on Carbonic anhydrase 2 it was 0.44 µM.

As for `NC1CCc2c(ccc(O)c2O)C1` (stereo unspecified) [6-Amino-5,6,7,8-tetrahydro-naphthalene-1,2-diol], the Ki on Carbonic anhydrase 6 came out at 0.97 µM; at Carbonic anhydrase 1 it was 45.1 µM; on Carbonic anhydrase 2, 0.38 µM.

Turning to `NC1Cc2cc(Br)c(Br)cc2C1` [CA inhibitor, 5], the Ki on Carbonic anhydrase 6 came to 0.78 µM; on Carbonic anhydrase 2, 470 µM.

On to `NC1Cc2ccc(Br)cc2C1` (stereo unspecified) [CA inhibitor, 6], for which the Ki at Carbonic anhydrase 6 was found to be 0.58 µM; on Carbonic anhydrase 1, 161 µM; at Carbonic anhydrase 2, 143 µM.

The values are drawn from BindingDB's records for doi:10.3109/14756366.2011.591290 (Agri Ibrahim Cecen University, 2012).
